Patent US20120135923A1, “Use of Melanocortins to Treat Dyslipidemia” (IPSEN PHARMA, S.A.S., priority 2009, published 2012)
Read-outs that look alike come from different tables or passages of the source. Bridge positions count the residues as written; N and C are the ends. Square brackets hold non-standard residues; d marks the D form. Peptide text beside a SMILES is read from it. 2Nal = N[C@@H](Cc1ccc2ccccc2c1)C(=O)O; d2Nal = N[C@H](Cc1ccc2ccccc2c1)C(=O)O; Bta = N[C@@H](Cc1csc2ccccc12)C(=O)O; Nle = CCCC[C@H](N)C(=O)O

Assays:
hMC4-R [1] = target: T1, hMC4-R (Homo sapiens, UniProt P32245); experiment: Radioligand binding assay, [125I]-NDP-α-MSH competition, CHO-K1 membranes
T1 construct: expressed in transfected cells; host or cells: CHO-K1
Procedure: (§1) Cellular membranes used for the in vitro receptor binding assays were obtained from transgenic CHO-K1 cells stably expressing hMC-R receptor subtypes 1, 3, 4 or 5. […] The pellets were resuspended in the same buffer and centrifuged at 50,000 g for 10 minutes at approximately 4° C. The washed pellets containing the cellular membranes were stored at approximately −80° C.
(§2) Cell membranes (1-10 μg protein/well) prepared as described above were incubated in 50 mM Tris-HCl at pH 7.4 containing 0.2% bovine serum albumin (BSA), 5 mM MgCl2, 1 mM CaCl2 and 0.1 mg/mL bacitracin, with increasing concentrations of the test compound and 0.1-0.3 nM [^25I]-NDP-α-MSH for approximately 90-120 minutes at approximately 37° C. […] Filters were washed three times with 50 mM Tris-HCl at pH 7.4 at a temperature of approximately 0-4° C. and then assayed for radioactivity using a Packard Topcount® scintillation counter. Binding data were analyzed by computer-assisted non-linear regression analysis (XL fit; IDBS).

hMC5-R [2] = target: T2, hMC5-R (Homo sapiens, UniProt P33032); experiment: as above
T2 construct: expressed in transfected cells; host or cells: CHO-K1
Procedure: as §1, §2

hMC1-R [3] = target: T3, hMC1-R (Homo sapiens, UniProt Q01726); experiment: cyclic AMP bioassay (ECL) in CHO-K1 cells; format: cell-based
T3 construct: expressed in transfected cells; host or cells: CHO-K1

hMC4-R [4] = target: T1, hMC4-R; experiment: cyclic AMP bioassay (ECL) in CHO-K1 cells; format: cell-based
hMC5-R [5] = target: T2, hMC5-R; experiment: cyclic AMP bioassay (ECL) in CHO-K1 cells; format: cell-based
Procedure: Intracellular cyclic AMP (cAMP) levels were determined by an electrochemiluminescence (ECL) assay (Meso Scale Discovery®, Gaithersburg, Md.; referred to hereinafter as MSD). […] Transgenic CHO-K1 cells stably expressing hMC receptor subtypes 1, 3, 4 or 5 were dispensed at a density of approximately 7,000 cells/well in 384-well Multi-Array®plates (MSD) containing integrated carbon electrodes and coated with anti-cAMP antibody. Increasing concentrations of the test compounds were added and the cells were incubated for approximately 40 minutes at approximately 37° C. […] At the end of the second incubation period read buffer (Tris-buffered solution containing an ECL co-reactant and Triton X-100 at ph 7.8) was added and the cAMP levels in the cell lysates were immediately determined by ECL detection with a Sector Imager 6000 Reader® (MSD). Data were analyzed using a computer-assisted non-linear regression analysis (XL fit; IDBS) and reported as either an EC50 value or a Kb value.
The Kb value reflects the potency of an antagonist and is determined by Schild analysis. In brief, concentration-response curves of an agonist are carried out in the presence of increasing concentrations of an antagonist. […] It is calculated by extrapolating the line on a Schild plot to zero on the y-axis.

hMC3-R [6] = target: T4, hMC3-R (Homo sapiens, UniProt P41968); experiment: cyclic AMP bioassay (ECL) in CHO-K1 cells; format: cell-based
T4 construct: expressed in transfected cells; host or cells: CHO-K1

hMC1-R [7] = target: T3, hMC1-R; experiment: Radioligand binding assay, [125I]-NDP-α-MSH competition, CHO-K1 membranes; conditions: Table 5
Procedure: as §1, §2

hMC3-R [8] = target: T4, hMC3-R; experiment: as above; conditions: Table 5
Procedure: as §1, §2

T3 sequence (Q01726 whole entry): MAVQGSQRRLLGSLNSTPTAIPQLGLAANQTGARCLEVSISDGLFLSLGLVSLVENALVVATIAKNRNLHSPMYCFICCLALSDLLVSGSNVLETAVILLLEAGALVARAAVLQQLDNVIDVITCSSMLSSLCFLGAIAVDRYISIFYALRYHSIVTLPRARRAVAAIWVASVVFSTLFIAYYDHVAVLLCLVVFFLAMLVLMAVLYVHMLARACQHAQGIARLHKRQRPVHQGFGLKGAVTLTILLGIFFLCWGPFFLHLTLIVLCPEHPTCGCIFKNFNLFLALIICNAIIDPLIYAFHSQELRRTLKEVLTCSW
T1 sequence (P32245 whole entry): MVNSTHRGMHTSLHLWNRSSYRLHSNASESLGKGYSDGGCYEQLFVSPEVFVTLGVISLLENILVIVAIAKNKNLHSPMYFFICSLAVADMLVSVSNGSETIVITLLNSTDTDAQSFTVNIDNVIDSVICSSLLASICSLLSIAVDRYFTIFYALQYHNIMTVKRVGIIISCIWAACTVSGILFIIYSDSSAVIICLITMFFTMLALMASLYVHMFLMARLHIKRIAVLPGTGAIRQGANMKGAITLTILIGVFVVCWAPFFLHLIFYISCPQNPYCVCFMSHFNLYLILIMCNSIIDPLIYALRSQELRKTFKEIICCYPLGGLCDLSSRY
T2 sequence (P33032 whole entry): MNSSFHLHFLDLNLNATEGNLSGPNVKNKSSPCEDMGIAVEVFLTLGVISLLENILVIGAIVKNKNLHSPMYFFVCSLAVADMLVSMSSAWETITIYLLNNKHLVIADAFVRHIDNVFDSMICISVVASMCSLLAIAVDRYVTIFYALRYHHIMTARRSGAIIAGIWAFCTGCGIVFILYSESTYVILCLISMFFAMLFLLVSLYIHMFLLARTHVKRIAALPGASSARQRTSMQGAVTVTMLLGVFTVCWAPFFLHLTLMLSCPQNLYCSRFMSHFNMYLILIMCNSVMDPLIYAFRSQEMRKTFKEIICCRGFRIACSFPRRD
T4 sequence (P41968 whole entry): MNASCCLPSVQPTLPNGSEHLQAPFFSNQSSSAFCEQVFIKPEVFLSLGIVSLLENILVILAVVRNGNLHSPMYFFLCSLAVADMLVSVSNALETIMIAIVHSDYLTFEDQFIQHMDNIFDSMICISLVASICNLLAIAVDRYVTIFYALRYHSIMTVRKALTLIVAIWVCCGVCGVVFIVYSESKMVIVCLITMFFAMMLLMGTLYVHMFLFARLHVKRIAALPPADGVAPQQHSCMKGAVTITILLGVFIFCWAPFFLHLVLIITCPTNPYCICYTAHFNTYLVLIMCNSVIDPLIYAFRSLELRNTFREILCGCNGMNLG

For `CC(=O)N[C@H]1CSSC[C@@H](C(=O)N2CCC[C@H]2C(=O)N2CCC[C@H]2C(=O)N[C@@H](CCCCN)C(=O)N[C@@H](CC(=O)O)C(=O)NCCC(=O)N[C@@H](CCCNC(=N)N)C(=O)N[C@@H](CCCNC(=N)N)C(=O)N[C@@H](CCCCN)C(=O)N[C@@H](CCCNC(=N)N)C(=O)N[C@@H](CCCNC(=N)N)C(=O)N[C@@H](CCC(N)=O)C(=O)N[C@@H](CCCNC(=N)N)C(=O)N[C@@H](CCCNC(=N)N)C(=O)N[C@@H](CCCNC(=N)N)C(N)=O)NC(=O)[C@H](C)NC(=O)[C@H](Cc2csc3ccccc23)NC(=O)[C@H](CCCNC(=N)N)NC(=O)[C@@H](Cc2ccc3ccccc3c2)NC(=O)[C@H](Cc2c[nH]cn2)NC(=O)[C@H](CCC(=O)O)NC1=O`, the Ki (hMC4-R [1]; Ki hMC4-R, Table 6) was 0.442 nM, the Ki (hMC5-R [2]; Ki hMC5-R, Table 6) was 15.5 nM and the EC50 (hMC1-R [3]) was 232 nM. It also gave a Kb (hMC4-R [4]) of 10 nM and an EC50 (hMC5-R [5]) of 250 nM.

`CC(=O)N[C@@H](CC1CCCCC1)C(=O)N[C@H]1CC(=O)NCCCC[C@@H](C(N)=O)NC(=O)CCCNC(=O)[C@H](Cc2c[nH]c3ccccc23)NC(=O)[C@H](CCCNC(=N)N)NC(=O)[C@@H](Cc2ccccc2)NC(=O)[C@H](Cc2c[nH]cn2)NC1=O` [Ac-Cha-c(Asp-His-D-Phe-Arg-Trp-Gaba-Lys)-NH2] showed a Ki (hMC4-R [1]; Table 5, read-out: Ki KMC4-R) of 1.49 nM, an EC50 (hMC1-R [3]; Table 9A/9B, read-out: EC50 hMC1-R) of 3.26 nM and an EC50 (hMC3-R [6]; Table 9A/9B, read-out: EC50 hMC3-R) of 0.189 nM. The EC50 (hMC4-R [4]; Table 9A/9B, read-out: EC50 hMC4-R) was 0.0949 nM and the EC50 (hMC5-R [5]; Table 9A/9B, read-out: EC50 hMC5-R) was 30.2 nM.

For `CC(=O)N[C@H](CCCNC(=N)N)C(=O)N[C@H]1CSSC(C)(C)[C@@H](C(N)=O)NC(=O)[C@H](Cc2c[nH]c3ccccc23)NC(=O)[C@H](CCCNC(=N)N)NC(=O)[C@@H](Cc2ccccc2)NC(=O)[C@H](Cc2c[nH]cn2)NC(=O)[C@@H](C)NC1=O` [Ac-D-Arg-c(Cys-D-Ala-His-D-Phe-Arg-Trp-Pen)-NH2], the Ki (hMC1-R [7]; Ki hMC1-R) was 8.29 nM, the Ki (hMC3-R [8]; Ki hMC3-R) was 13.3 nM and the Ki (hMC5-R [2]; Ki hMC5-R, Table 5) was 816 nM. The EC50 (hMC1-R [3]) was 26.5 nM, the EC50 (hMC3-R [6]) was 10.5 nM and the EC50 (hMC4-R [4]) was 0.493 nM. For the same compound, the EC50 (hMC5-R [5]) was 2440 nM.

With `CCCC[C@H](NC(C)=O)C(=O)N[C@H]1CSSC[C@@H](C(N)=O)NC(=O)[C@H](Cc2ccc3ccccc3c2)NC(=O)[C@H](CCCNC(=N)N)NC(=O)[C@@H](Cc2ccc3ccccc3c2)NC(=O)[C@H](Cc2c[nH]cn2)NC(=O)[C@@H](C)NC1=O` [Ac-Nle-c(Cys-D-Ala-His-D-2-Nal-Arg-2-Nal-Cys)-NH2] (Ac-[Nle]C[dA]H[d2Nal]R[2Nal]C-NH2; disulfide 2-8) the Ki (hMC1-R [7]; read-out: Ki hMC1-R) was 32.5 nM, the Ki (hMC3-R [8]; read-out: Ki hMC3-R) was 5.85 nM and the Ki (hMC4-R [1]; Table 5, read-out: Ki KMC4-R) was 2.53 nM. It also gave a Ki (hMC5-R [2]; Table 5, read-out: Ki hMC5-R) of 94.6 nM.

Compound `CCCC[C@H](NC(C)=O)C(=O)N[C@H]1CSSC[C@@H](C(N)=O)NC(=O)[C@H](Cc2csc3ccccc23)NC(=O)[C@H](CCCNC(=N)N)NC(=O)[C@@H](Cc2ccc3ccccc3c2)NC(=O)[C@H](Cc2c[nH]cn2)NC(=O)[C@@H](C)NC1=O` [Ac-Nle-c(Cys-D-Ala-His-D-2-Nal-Arg-Bal-Cys)-NH2] (Ac-[Nle]C[dA]H[d2Nal]R[Bta]C-NH2; disulfide 2-8) has a Ki (hMC1-R [7]; read-out: Ki hMC1-R) of 22.2 nM, a Ki (hMC3-R [8]; read-out: Ki hMC3-R) of 12.7 nM and a Ki (hMC5-R [2]; Table 5, read-out: Ki hMC5-R) of 125 nM.

Compound `CCCC[C@H](NC(C)=O)C(=O)N[C@H]1CSSC[C@@H](C(N)=O)NC(=O)[C@H](Cc2c[nH]c3ccccc23)NC(=O)[C@H](CCCNC(=N)N)NC(=O)[C@@H](Cc2ccc3ccccc3c2)NC(=O)[C@H](Cc2c[nH]cn2)NC(=O)[C@@H](C)NC1=O` [Ac-Nle-c(Cys-D-Ala-His-D-2-Nal-Arg-Trp-Cys)-NH2] has a Ki (hMC4-R [1]; Ki KMC4-R, Table 5) of 7.61 nM, a Ki (hMC5-R [2]; Ki hMC5-R, Table 5) of 102 nM and an EC50 (hMC1-R [3]) of 17.6 nM. It also gave a Kb (hMC3-R [6]) of 12.4 nM, a Kb (hMC4-R [4]) of 38.8 nM and an EC50 (hMC5-R [5]) of 11.8 nM.

`CCCC[C@H](NC(C)=O)C(=O)N[C@H]1CSSC[C@@H](C(=O)O)NC(=O)[C@H](Cc2c[nH]c3ccccc23)NC(=O)[C@H](CCCNC(=N)N)NC(=O)[C@@H](Cc2ccccc2)NC(=O)[C@H](Cc2c[nH]cn2)NC(=O)[C@@H](C)NC1=O` [Ac-Nle-c(Cys-D-Ala-His-D-Phe-Arg-Trp-Cys)-OH] gave a Ki (hMC1-R [7]; Ki hMC1-R) of 30.7 nM, a Ki (hMC3-R [8]; Ki hMC3-R) of 152 nM and a Ki (hMC4-R [1]; Ki KMC4-R, Table 5) of 15.6 nM. The Ki (hMC5-R [2]; Ki hMC5-R, Table 5) was 114 nM.
